Laboratory results from a compilation of properties of binary mixtures (doi:10.1016/j.molliq.2015.11.032).

Experiment: xn = mol fraction of the nth substance listed
Conditions: 101 kPa

| viscosity (296.97 K, x2 = 0.75) | viscosity (301.89 K, x2 = 0.75) | viscosity (306.95 K, x2 = 0.75) | viscosity (312 K, x2 = 0.75) | viscosity (317.18 K, x2 = 0.75) | viscosity (353.18 K, x2 = 0.75) | viscosity (296.84 K, x2 = 0.9412) | electrical conductivity (298.1 K, x2 = 0.9412) | viscosity (301.89 K, x2 = 0.9412) | viscosity (312.13 K, x2 = 0.9412) | electrical conductivity (313.32 K, x2 = 0.9412) | viscosity (317.31 K, x2 = 0.9412) | electrical conductivity (328.03 K, x2 = 0.9412) | viscosity (332.72 K, x2 = 0.9412) | viscosity (353.18 K, x2 = 0.9412) | SMILES |
| --- | --- | --- | --- | --- | --- | --- | --- | --- | --- | --- | --- | --- | --- | --- | --- |
| 2771 mPa·s | 1657 mPa·s | 1002.8 mPa·s | 612 mPa·s | 382 mPa·s | 59.5 mPa·s | – | – | – | – | – | – | – | – | – | C[P+](c1ccccc1)(c1ccccc1)c1ccccc1.[Br-] + OCC(O)CO |
| – | – | – | – | – | – | 1359.8 mPa·s | 0.007 S/m | 943 mPa·s | 459 mPa·s | 0.0174 S/m | 306 mPa·s | 0.0419 S/m | 110.5 mPa·s | 59.49 mPa·s | [Cl-].c1ccc(C[P+](c2ccccc2)(c2ccccc2)c2ccccc2)cc1 + OCC(O)CO |
